We go through 33 compounds from patent publication US12319655B2, “RAF kinase inhibitors and methods of use thereof” (Deciphera Pharmaceuticals, LLC, priority 2021, dated 2025).

Experiment [1] addresses B-Raf kinase (SEQ. ID NO: 2) (Homo sapiens (Human), UniProt P15056). As to the kind of experiment: Biochemical Assay for B-Raf (1). To be noted: Table J. In outline: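 IC50 derived by four-parameter sigmoidal fit of percent inhibition, normalised to uninhibited and reference-inhibitor controls, using reaction rates over 4–5 h. Coupled spectrophotometric readout (NADH loss at 340 nm, 6 h, 30° C.); 1 mM ATP, 30.1 nM MEK, 0.13 nM B-Raf, pH 7.5 Tris buffer, 1% DMSO.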

The test system of a further experiment is WM3928 cells. As to the kind of experiment: WM3928 Cell Proliferation Assay (1). Format: cell-based. In outline:
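IC50 was derived from resazurin fluorescence (ex 540, em 600 nm) after a 6–7 h dye incubation. Before that, cells had 67–72 h of compound exposure at 37 °C, 5% CO2.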

The target in experiment [2] is C-Raf kinase (SEQ. ID NO: 3) (Homo sapiens (Human), UniProt P04049, Y340D/Y341D). As to the kind of experiment: Biochemical Assay for C-Raf (1). To be noted: Table J. In short, it runs like this:
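IC50 values come from a four-parameter fit of percent inhibition, using the reaction rate over 4–5 h of a 6 h continuous 340 nm read at 30 °C. The enzyme mix was C-Raf 0.43 nM, MEK substrate 30.1 nM and ATP 1 mM, in a PK/LDH NADH-coupled format in Tris pH 7.5 with 1% DMSO.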

The next experiment relates to Miapaca-2 cells. The experiment is described as follows: MiaPaca-2 Cell Proliferation Assay (1). Type of experiment: cell-based. The note with it: Homo sapiens, MIA PaCa-2, single agent, read-out: MiaPaca2 (1) IC50. In short, it runs like this: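 Resazurin was added after compound exposure and incubated 5-6 h, then fluorescence read at 540 nm excitation and 600 nm emission to give IC50.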

Where [3] appears, read: biochemical assay (1), read-out: BRAF (1).
Where [4] appears, read: biochemical assay (1), read-out: CRAF (1).
Where [5] appears, read: assay version (1), read-out: BRAF (1) IC50.
The mark [6] stands for this setting: assay version (1), read-out: CRAF (1) IC50.

pIC50: −log10 of the molar value. Like-named read-outs stand apart in the source and are kept apart here.

Chain of C-Raf kinase (SEQ. ID NO: 3) (P04049 307-648 Y340D/Y341D): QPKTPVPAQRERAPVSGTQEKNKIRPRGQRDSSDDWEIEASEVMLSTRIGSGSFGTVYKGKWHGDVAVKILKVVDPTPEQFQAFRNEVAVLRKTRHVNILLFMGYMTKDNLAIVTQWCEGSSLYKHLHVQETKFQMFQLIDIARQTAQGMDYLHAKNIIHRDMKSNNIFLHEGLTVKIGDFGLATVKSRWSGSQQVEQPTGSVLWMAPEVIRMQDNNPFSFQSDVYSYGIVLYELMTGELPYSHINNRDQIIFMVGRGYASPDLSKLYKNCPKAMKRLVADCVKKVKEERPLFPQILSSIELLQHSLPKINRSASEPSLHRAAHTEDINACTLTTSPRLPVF
Chain of B-Raf kinase (SEQ. ID NO: 2) (P15056 416-766): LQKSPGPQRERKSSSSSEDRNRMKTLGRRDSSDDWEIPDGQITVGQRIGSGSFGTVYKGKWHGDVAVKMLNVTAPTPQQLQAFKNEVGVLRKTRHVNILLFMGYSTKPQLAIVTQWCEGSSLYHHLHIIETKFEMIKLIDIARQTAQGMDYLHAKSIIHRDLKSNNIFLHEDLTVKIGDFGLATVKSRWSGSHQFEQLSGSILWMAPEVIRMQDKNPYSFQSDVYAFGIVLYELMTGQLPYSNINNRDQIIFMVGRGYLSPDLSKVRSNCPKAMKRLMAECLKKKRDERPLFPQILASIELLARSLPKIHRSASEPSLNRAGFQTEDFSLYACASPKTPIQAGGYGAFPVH

On to `CNC(=O)c1cc(-c2cncc(-c3cc(NC(=O)c4ccnc(C(C)(C)F)c4)ccc3C)c2)ncn1` [Example 379], for which the pIC50 is 6.30 to 7.00 in experiment [1] (setting [3]), not below 7.00 in the experiment on WM3928 cells, not below 7.00 in experiment [2] (setting [4]) and 5.00 to 6.00 in the experiment with Miapaca-2 cells.

As for `CC(=O)Nc1cc(-c2cc(-c3cc(NC(=O)c4ccnc(C(F)(F)F)c4)ccc3C)nc(N(C)C)n2)ccn1` [Example 41, N-(3-(6-(2-acetamidopyridin-4-yl)-2-(dimethylamino)pyrimidin-4-yl)-4-methylphenyl)-2-(trifluoromethyl)isonicotinamide], the pIC50 was not below 7.00 in experiment [1] (setting [5]), not below 7.00 in the experiment on WM3928 cells, not below 7.00 in experiment [2] (setting [6]) and 5.00 to 6.00 with Miapaca-2 cells.

For `Cc1ccc(NC(=O)c2ccnc(C(F)(F)F)c2)cc1-c1ccnc(-c2ccnc(NC(=O)C3CC3)c2)c1` [Example 54], the pIC50 was not below 7.00 in experiment [1] (setting [5]), not below 7.00 with WM3928 cells, not below 7.00 in experiment [2] (setting [6]) and 5.00 to 6.00 with Miapaca-2 cells.

As for `CNC(=O)c1cc(-c2cncc(-c3cc(NC(=O)c4ccnc(C(C)(C)C#N)c4)ccc3C)n2)ccn1` [Example 86], the pIC50 in experiment [1] (setting [5]) was 6.30 to 7.00; in the experiment with WM3928 cells, not below 7.00; in experiment [2] (setting [6]) it was not below 7.00; with Miapaca-2 cells it was 5.00 to 6.00.

Turning to `Cc1ccc(NC(=O)c2ccnc(C(C)(C)F)c2)cc1-c1cncc(-c2cc(NC(=O)C3CC3)ncn2)c1` [Example 394], the pIC50 is not below 7.00 in experiment [1] (setting [3]), not below 7.00 in the experiment with WM3928 cells, not below 7.00 in experiment [2] (setting [4]) and 6.30 to 7.00 in the experiment on Miapaca-2 cells.

With `Cc1ccc(NC(=O)c2ccnc(C3(C#N)CC3)c2)cc1-c1cncc(-c2cc(NC(=O)C3CC3)ncn2)c1` [Example 395], the pIC50 in experiment [1] (setting [3]) is not below 7.00; in the experiment on WM3928 cells, not below 7.00; in experiment [2] (setting [4]) it was not below 7.00; in the experiment with Miapaca-2 cells, 6.30 to 7.00.

`Cc1ccc(NC(=O)c2ccnc(C(C)(C)C#N)c2)cc1-c1cccc(-c2cc(NC(=O)C3CC3)ncn2)c1` [Example 77]: the pIC50 in experiment [1] (setting [5]) was not below 7.00; in the experiment with WM3928 cells, not below 7.00; in experiment [2] (setting [6]), not below 7.00; with Miapaca-2 cells, 5.00 to 6.00.

`COCC(=O)Nc1cc(-c2nccc(-c3cc(NC(=O)c4ccnc(C(C)(C)C#N)c4)ccc3C)n2)ccn1` [Example 88]: the pIC50 in experiment [1] (setting [5]) is not below 7.00; in the experiment on WM3928 cells, not below 7.00; in experiment [2] (setting [6]), not below 7.00; in the experiment with Miapaca-2 cells, 5.00 to 6.00.

As for `COC(=O)Nc1cc(-c2cccc(-c3cc(NC(=O)c4ccnc(C(C)(C)F)c4)cnc3C)c2)ccn1` [Example 402], the pIC50 is not below 7.00 in experiment [1] (setting [3]), 6.30 to 7.00 with WM3928 cells and not below 7.00 in experiment [2] (setting [4]).

`Cc1ccc(NC(=O)[C@H]2CCO[C@H](C(C)C)C2)cc1-c1cc(-c2ccnc(NC(=O)C3CC3)c2)cnn1` [Example 389]: the pIC50 in experiment [1] (setting [3]) was not below 7.00; in the experiment with WM3928 cells, 6.00 to 6.30; in experiment [2] (setting [4]), not below 7.00.

Turning to `Cc1ccc(NC(=O)c2ccnc(C(F)(F)F)c2)cc1-c1cncc(-c2cc(NC(=O)C3CC3)ncn2)c1` [Example 397], the pIC50 was not below 7.00 in experiment [1] (setting [3]), not below 7.00 in the experiment with WM3928 cells, not below 7.00 in experiment [2] (setting [4]) and 6.30 to 7.00 in the experiment on Miapaca-2 cells.

As for `Cc1ccc(NC(=O)[C@H]2CCO[C@@H](C(C)C)C2)cc1-c1cc(-c2ccnc(NC(=O)C3CC3)c2)cnn1` [Example 388], the pIC50 in experiment [1] (setting [3]) was not below 7.00; with WM3928 cells, 6.00 to 6.30; in experiment [2] (setting [4]), not below 7.00.

With `CNC(=O)c1cc(-c2cc(-c3cc(NC(=O)c4ccnc(C(F)(F)F)c4)ccc3C)ncn2)ccn1` [Example 85], the pIC50 is not below 7.00 in experiment [1] (setting [5]), 5.00 to 6.00 in the experiment with WM3928 cells, not below 7.00 in experiment [2] (setting [6]) and 5.00 to 6.00 in the experiment on Miapaca-2 cells.

With `CNC(=O)c1cc(-c2cncc(-c3cc(NC(=O)c4ccnc(C5(C#N)CC5)c4)ccc3C)c2)ncn1` [Example 393], the pIC50 in experiment [1] (setting [3]) was not below 7.00; with WM3928 cells, not below 7.00; in experiment [2] (setting [4]), not below 7.00; in the experiment on Miapaca-2 cells it was 5.00 to 6.00.

Consider `Cc1ccc(NC(=O)c2ccnc(C(C)(C)C#N)c2)cc1-c1ccnc(-c2ccnc(N)c2)c1` [Example 56], for which the pIC50 in experiment [1] (setting [5]) is not below 7.00; with WM3928 cells, 6.00 to 6.30; in experiment [2] (setting [6]), not below 7.00; with Miapaca-2 cells, 5.00 to 6.00.

With `Cc1ccc(NC(=O)c2ccnc(C(C)(C)C#N)c2)cc1-c1ccnc(-c2ccnc(NC(=O)CC#N)c2)c1` [Example 63], the pIC50 is not below 7.00 in experiment [1] (setting [5]), not below 7.00 in the experiment on WM3928 cells, not below 7.00 in experiment [2] (setting [6]) and 5.00 to 6.00 with Miapaca-2 cells.

In the case of `CNC(=O)c1cc(-c2cc(-c3cc(C(=O)Nc4ccnc(C(C)(C)C#N)c4)ccc3C)ccn2)ccn1` [Example 74], the pIC50 in experiment [1] (setting [5]) was 6.00 to 6.30; in the experiment on WM3928 cells it was 6.30 to 7.00; in experiment [2] (setting [6]), 6.30 to 7.00; with Miapaca-2 cells, 5.00 to 6.00.

With `Cc1ccc(NC(=O)c2ccnc(C(C)(C)F)c2)cc1-c1cc(-c2ccnc3[nH]ncc23)cnn1` [Example 400], the values for the pIC50 (in experiment [1] (setting [3]); with WM3928 cells; in experiment [2] (setting [4])) were not below 7.00, 5.00 to 6.00 and not below 7.00, respectively.

Take `COC(=O)Nc1cc(-c2ccnc(-c3cc(NC(=O)c4ccnc(C(C)(C)F)c4)ccc3C)n2)ccn1` [Example 403]: the pIC50 (in experiment [1] (setting [3]); with WM3928 cells; in experiment [2] (setting [4])) was not below 7.00 in each case.

With `COC(=O)Nc1cc(-c2nccc(-c3cc(NC(=O)c4ccnc(C(C)(C)F)c4)ccc3C)n2)ccn1` [Example 391], the pIC50 was not below 7.00 in experiment [1] (setting [3]), not below 7.00 in the experiment on WM3928 cells, not below 7.00 in experiment [2] (setting [4]) and 5.00 to 6.00 in the experiment on Miapaca-2 cells.

Take `Cc1cc(F)c(NC(=O)c2ccnc(C3CC3)c2)cc1-c1cncc(-c2cc(NC(=O)C3CC3)ncn2)c1` [Example 398]: the pIC50 in experiment [1] (setting [3]) was not below 7.00; in the experiment on WM3928 cells, not below 7.00; in experiment [2] (setting [4]), not below 7.00; in the experiment with Miapaca-2 cells, 6.00 to 6.30.

With `Cc1cc(-c2cc(NC(=O)c3ccnc(C(F)(F)F)c3)ccc2F)cc(-c2ccnc(NC(=O)C3CC3)c2)n1` [Example 72], the pIC50 in experiment [1] (setting [5]) was not below 7.00; in the experiment on WM3928 cells, 6.30 to 7.00; in experiment [2] (setting [6]), not below 7.00; in the experiment with Miapaca-2 cells it was 5.00 to 6.00.

In the case of `CNC(=O)c1cc(-c2cc(-c3cc(NC(=O)c4ccnc(C(F)(F)F)c4)cnc3C)ccn2)ccn1` [Example 42], the pIC50 is 6.30 to 7.00 in experiment [1] (setting [5]), 5.00 to 6.00 in the experiment on WM3928 cells, not below 7.00 in experiment [2] (setting [6]) and 5.00 to 6.00 in the experiment on Miapaca-2 cells.

For `COC(=O)Nc1cc(-c2cnnc(-c3cc(NC(=O)c4ccnc(C(C)(C)F)c4)ccc3C)c2)ccn1` [Example 375], the pIC50 (in experiment [1] (setting [3]); in the experiment with WM3928 cells; in experiment [2] (setting [4])) was not below 7.00 in each case.

In the case of `COC(=O)Nc1cc(-c2cncc(-c3cc(NC(=O)c4ccnc(C(C)(C)F)c4)c(F)cc3C)c2)ccn1` [Example 384], the pIC50 in experiment [1] (setting [3]) was not below 7.00; in the experiment on WM3928 cells, not below 7.00; in experiment [2] (setting [4]), not below 7.00; with Miapaca-2 cells, 5.00 to 6.00.

On to `Cc1cc(F)c(NC(=O)c2ccnc(C(C)(C)F)c2)cc1-c1cncc(-c2ccnc(NC(=O)C3CC3)c2)c1` [Example 399], for which the pIC50 (in experiment [1] (setting [3]); in the experiment with WM3928 cells; in experiment [2] (setting [4])) was not below 7.00 in each case.

As for `CNC(=O)c1cc(-c2cc(-c3cc(NC(=O)c4ccnc(C(F)F)c4)ccc3C)ccn2)ccn1` [Example 48], the pIC50 in experiment [1] (setting [5]) was not below 7.00; in the experiment on WM3928 cells, 6.00 to 6.30; in experiment [2] (setting [6]), not below 7.00; with Miapaca-2 cells, 5.00 to 6.00.

Regarding `Cc1ncc(NC(=O)c2ccnc(C(C)(C)C#N)c2)cc1-c1cccc(-c2ncnn3cccc23)c1` [Example 385], the pIC50 in experiment [1] (setting [3]) was 6.30 to 7.00; in the experiment with WM3928 cells, 5.00 to 6.00; in experiment [2] (setting [4]), 6.30 to 7.00.

As for `CNC(=O)c1cc(-c2cc(-c3cc(NC(=O)c4cccc(C(F)(F)F)c4)cnc3C)ccn2)ccn1` [Example 52], the pIC50 was 6.30 to 7.00 in experiment [1] (setting [5]), 6.30 to 7.00 with WM3928 cells, not below 7.00 in experiment [2] (setting [6]) and 5.00 to 6.00 in the experiment on Miapaca-2 cells.

As to `CNC(=O)c1cc(-c2nccc(-c3cc(NC(=O)c4ccnc(C(C)(C)C#N)c4)ccc3C)n2)ccn1` [Example 78], the pIC50 in experiment [1] (setting [5]) was 6.30 to 7.00; in the experiment on WM3928 cells, not below 7.00; in experiment [2] (setting [6]), not below 7.00; in the experiment on Miapaca-2 cells, 5.00 to 6.00.

Consider `Cc1ccc(NC(=O)c2ccnc(C(C)(C)C#N)c2)cc1-c1ccnc(-c2ccnc(N)c2)n1` [Example 82], for which the pIC50 is not below 7.00 in experiment [1] (setting [5]), 5.00 to 6.00 with WM3928 cells, not below 7.00 in experiment [2] (setting [6]) and 5.00 to 6.00 in the experiment on Miapaca-2 cells.

`Cc1ccc(NC(=O)c2ccnc(C(F)(F)F)c2)cc1-c1cccc(-c2cc(NC(=O)C3CC3)ncn2)c1` [Example 80]: the pIC50 in experiment [1] (setting [5]) was not below 7.00; with WM3928 cells, 6.30 to 7.00; in experiment [2] (setting [6]) it was not below 7.00; in the experiment with Miapaca-2 cells, 5.00 to 6.00.

`CNC(=O)c1cc(-c2ccnc(-c3cc(NC(=O)CCC4(F)CC4)ccc3C)c2)ccn1` [Example 392]: the pIC50 is 6.00 to 6.30 in experiment [1] (setting [3]), 5.00 to 6.00 in the experiment with WM3928 cells and 6.30 to 7.00 in experiment [2] (setting [4]).
